Source: patent US5436263A, “Inhibitors of farnesyl-protein transferase” (Merck & Co., Inc., priority 1994, dated 1995)

Legend:
Ras farnesylation = settings: HMG-CoA reductase inhibitors, Hancock et al., Casey et al., Schafer et al.; cited from earlier work
bovine FPTase = biological target: T1, bovine FPTase (Bos taurus, UniProt P29702+P49355); test: In vitro inhibition of Ras farnesyl-protein transferase, partially purified bovine FPTase; assay type: biochemical; settings: Ras-CVLS substrate, [3H]-FPP, pH 7.4, 31° C., 60 min, concentration giving 50% inhibition of FPTase, read-out: Inhibition of RAS farnesylation IC50, bovine
T1 construct: Farnesyl-protein transferase (FPTase) from bovine brain; from tissue; host or cells: bovine brain
Description: The intrinsic farnesyl-protein transferase (FPTase) activity of representative compounds of this invention was measured by the assay as described below:
Farnesyl-protein transferase (FPTase) from bovine brain was chromatographed on DEAE-Sephacel (Pharmacia, 0-0.8M NaCl gradient elution), N-octyl agarose (Sigma, 0-0.6M NaCl gradient elution), and a mono Q HPLC column (Pharmacia, 0-0.3M NaCl gradient). Ras-CVLS (Cys-Val-Leu-Ser) at 3.5 mM, […] [^3 H]FPP, and the indicated compounds were incubated with this partially purified enzyme preparation. The FPTase inhibition data presented below is a measurement of the ability of the test compound to inhibit Ras farnesylation in vitro.
Assays of farnesyl-protein transferase. Partially purified bovine FPTase and Ras peptides (Ras-CVLS, Ras-CVIM and RAS-CAIL) were prepared as described by Schaber et al. J. Biol. Chem. 265:14701-14704 (1990) and Gibbs et al. PNAS U.S.A. 86:6630-6634 (1989), respectively. […] Precipitates were collected onto filter-mats using a TomTec Mach H cell harvestor, washed with 100% ethanol, dried and counted in an LKB β-plate counter. […] Percentage inhibition is measured by the amount of incorporation of farnesyl in the presence of the test compound when compared to the amount of incorporation in the absence of the test compound.

human FPTase = biological target: T2, human FPTase (Homo sapiens, UniProt P49354+P49356); test: In vitro inhibition of Ras farnesyl-protein transferase, human FPTase; assay type: biochemical; settings: 100 nM Ras-CVIM, 0.1% PEG 20,000, 10 μM ZnCl2, 30 min, concentration giving 50% inhibition of FPTase, read-out: Inhibition of RAS farnesylation IC50, human
T2 construct: made in house
Description: Inhibitory activity of the compounds of the instant invention may also be measured with an assay employing the recombinant human FPTase obtained as described by C. A. Omer et al. (Biochemistry, 32:5167-5176 (1993)).
Assays of farnesyl-protein transferase. Partially purified bovine FPTase and Ras peptides (Ras-CVLS, Ras-CVIM and RAS-CAIL) were prepared as described by Schaber et al. J. Biol. Chem. 265:14701-14704 (1990) and Gibbs et al. PNAS U.S.A. 86:6630-6634 (1989), respectively. Bovine FPTase was assayed in a volume of […] containing 100 mM N-(2-hydroxy ethyl) piperazine-N'-(2-ethane sulfonic acid) (HEPES), pH 7.4, 5 mM MgCl2, 5 mM dithiothreitol (DTT), […] [^3 H]-farnesyl diphosphate ([^3 H]-FPP; 740 CBq/mmol, New England Nuclear), 650 nM Ras-CVLS and 10 μg/ml FPTase at 31° C. for 60 min. Reactions were initiated with FPTase and stopped with 1 ml of 1.0M HCL in ethanol. Precipitates were collected onto filter-mats using a TomTec Mach H cell harvestor, washed with 100% ethanol, dried and counted in an LKB β-plate counter. The assay was linear with respect to both substrates, FPTase levels and time; less than 10 % of the [^3 H]-FPP was utilized during the reaction period. […] Percentage inhibition is measured by the amount of incorporation of farnesyl in the presence of the test compound when compared to the amount of incorporation in the absence of the test compound. […]

Compound: CC[C@H](C)C(=O)O[C@H]1CCC=C2C=C[C@H](C)[C@H](CC[C@@H]3C[C@@H](O)CC(=O)O3)[C@H]21 [compactin]
- Inhibition of Ras farnesylation in vivo (Ras farnesylation): Inhibition of Ras farnesylation in vivo has been demonstrated

Compound: CC[C@H](C)C(=O)O[C@H]1C[C@@H](C)C=C2C=C[C@H](C)[C@H](CC[C@@H]3C[C@@H](O)CC(=O)O3)[C@H]21 [lovastatin]
- Inhibition of Ras farnesylation in vivo (Ras farnesylation): Inhibition of Ras farnesylation in vivo has been demonstrated

Compound: COC(=O)C1=CC(COC(C)=O)=COc2oc3cccc(OC(C)=O)c3c(=O)c21 [Compound 2, 7-acetyloxy-3-[(acetyloxy)methyl]-6-oxo-6H-oxepino[2,3-b][1]benzopyran-5-carboxylic acid methyl ester]
- IC50 (bovine FPTase): 1000 nM

Compound: COC(=O)C1=CC(CO)=COc2oc3cccc(O)c3c(=O)c21 [Compound 1, 7-hydroxy-3-(hydroxymethyl)-6-oxo-6H-oxepino[2,3-b][1]benzopyran-5-carboxylic acid methyl ester]
- IC50 (human FPTase): 2700 nM
- IC50 (bovine FPTase): 300 nM
